# Results: US9381201B2, “Pharmaceutical composition and kit for treating bacterial infections” (priority 2011, dated 2016)
# Key:
# [1] = tested on: gram-positive microorganisms; conditions: many gram-positive microorganisms; cited from earlier work
# gram-negative bacteria = conditions: a large number of gram-negative bacteria; cited from earlier work
# [2] = tested on: tuberculosis Mycobacterium; conditions: cited from earlier work
# Streptococcus pyogenes = Streptococcus pyogenes resistant to penicillin and other antibiotics; cited from earlier work
# [3] = tested on: intracellular Mycobacterium tuberculosis; conditions: cited from earlier work
# [4] = in vivo; cited from earlier work
# [5] = tested on: Mycobacterium tuberculosis Erdman (ATCC 35801); test: anti-tuberculosis activity on a model of mice infected with Mycobacterium tuberculosis (acute tuberculosis infection); conditions: Rifalazil 2.5 mg/kg/day intraperitoneally, 3 week administration, BALB/c mice
molecule,measurement,setting,value
CO[C@H]1/C=C/O[C@@]2(C)Oc3c(C)c(O)c4c(O)c(c(/C=N/N5CCN(C)CC5)c(O)c4c3C2=O)NC(=O)/C(C)=C\C=C\[C@H](C)[C@H](O)[C@@H](C)[C@@H](O)[C@@H](C)[C@H](OC(C)=O)[C@@H]1C [Rifampicin],minimal inhibiting concentration,[1],1 to 100 ng/mL
same,minimal inhibiting concentration,gram-negative bacteria,1000 to 10000 ng/mL
same,minimal inhibiting concentration,[2],5 to 500 ng/mL
same,share of Streptococcus pyogenes sensitive,Streptococcus pyogenes,Over 95%
CO[C@H]1/C=C/O[C@@]2(C)Oc3c(C)c(O)c4c(c3C2=O)C2=NC3(CCN(CC(C)C)CC3)NC2=C(NC(=O)/C(C)=C\C=C\[C@H](C)[C@H](O)[C@@H](C)[C@@H](O)[C@@H](C)[C@H](OC(C)=O)[C@@H]1C)C4=O [Rifabutin],active concentration relative to Rifampicin,[3],2 times less
Rifalazil,half-life of elimination,[4],> 100 h
same,Lowering of micobacterium titers in mice lungs in comparison with the control (CMC) on the 31 day,[5],87 times
